# According to PubChem BioAssay AID1259407 (Chemical Carcinogenesis Research Information System (CCRIS), 2018):
# Calls of active or inactive are those of the source. The rule behind the calls is not given here.
# System: CCRIS mutagenicity, Ames/micronucleus/aberration tests
# Test: CCRIS mutagenicity studies
# [1] = Test System: AMES SALMONELLA TYPHIMURIUM, Strain/Indicator: TA98, Metabolic Activation: NONE, Method: STANDARD PLATE
# [2] = Test System: AMES SALMONELLA TYPHIMURIUM, Strain/Indicator: TA98, Metabolic Activation: RAT, LIVER, S-9, AROCLOR 1254, Method: STANDARD PLATE
# [3] = Test System: AMES SALMONELLA TYPHIMURIUM, Strain/Indicator: TA100, Metabolic Activation: RAT, LIVER, S-9, AROCLOR 1254, Method: STANDARD PLATE
# [4] = Test System: AMES SALMONELLA TYPHIMURIUM, Strain/Indicator: TA100, Metabolic Activation: NONE, Method: STANDARD PLATE
# [5] = Test System: AMES SALMONELLA TYPHIMURIUM, Strain/Indicator: TA1535, Metabolic Activation: NONE, Method: PREINCUBATION
# [6] = Test System: AMES SALMONELLA TYPHIMURIUM, Strain/Indicator: TA1535, Metabolic Activation: RAT, LIVER, S-9, TETRACHLOROBIPHENYL, Method: PREINCUBATION
# [7] = Test System: AMES SALMONELLA TYPHIMURIUM, Strain/Indicator: TA1537, Metabolic Activation: NONE, Method: PREINCUBATION
# [8] = Test System: AMES SALMONELLA TYPHIMURIUM, Strain/Indicator: TA1537, Metabolic Activation: RAT, LIVER, S-9, TETRACHLOROBIPHENYL, Method: PREINCUBATION
# [9] = Test System: AMES SALMONELLA TYPHIMURIUM, Strain/Indicator: TA1538, Metabolic Activation: NONE, Method: PREINCUBATION
# [10] = Test System: AMES SALMONELLA TYPHIMURIUM, Strain/Indicator: TA1538, Metabolic Activation: RAT, LIVER, S-9, TETRACHLOROBIPHENYL, Method: PREINCUBATION
# [11] = Test System: AMES SALMONELLA TYPHIMURIUM, Strain/Indicator: TA1977, Metabolic Activation: NONE, Method: PREINCUBATION
# [12] = Test System: AMES SALMONELLA TYPHIMURIUM, Strain/Indicator: TA98, Metabolic Activation: NONE, Method: PREINCUBATION
# [13] = Test System: AMES SALMONELLA TYPHIMURIUM, Strain/Indicator: TA100, Metabolic Activation: NONE, Method: PREINCUBATION
structure (smiles),measurement,setting,value
CCOP(=O)(OCC)O/C(=C\Cl)c1ccc(Cl)cc1Cl,mutagenic call,[1],inactive; negative
same,mutagenic call,[2],inactive; negative
same,mutagenic call,[3],inactive; negative
same,mutagenic call,"Test System: AMES SALMONELLA TYPHIMURIUM, Strain/Indicator: TA100, Metabolic Activation: S-9 MIX, Method: STANDARD PLATE",inactive; negative
same,mutagenic call,"Test System: AMES SALMONELLA TYPHIMURIUM, Strain/Indicator: TA1535, Metabolic Activation: NONE, Method: STANDARD PLATE",inactive; negative
same,mutagenic call,"Test System: AMES SALMONELLA TYPHIMURIUM, Strain/Indicator: TA1535, Metabolic Activation: RAT, LIVER, S-9, AROCLOR 1254, Method: STANDARD PLATE",inactive; negative
same,mutagenic call,"Test System: AMES SALMONELLA TYPHIMURIUM, Strain/Indicator: TA1537, Metabolic Activation: NONE, Method: STANDARD PLATE",inactive; negative
same,mutagenic call,"Test System: AMES SALMONELLA TYPHIMURIUM, Strain/Indicator: TA1537, Metabolic Activation: RAT, LIVER, S-9, AROCLOR 1254, Method: STANDARD PLATE",inactive; negative
same,mutagenic call,"Test System: AMES SALMONELLA TYPHIMURIUM, Strain/Indicator: TA1538, Metabolic Activation: NONE, Method: STANDARD PLATE",inactive; negative
same,mutagenic call,"Test System: AMES SALMONELLA TYPHIMURIUM, Strain/Indicator: TA1538, Metabolic Activation: RAT, LIVER, S-9, AROCLOR 1254, Method: STANDARD PLATE",inactive; negative
OC/C=C/C=C/CO,mutagenic call,"Test System: CHINESE HAMSTER V-79, Strain/Indicator: V-79 (HGPRT)/8-AZAGUANINE, Metabolic Activation: NONE",inactive; negative
O=C1OC(O)C(C(Br)Br)=C1Cl (stereo not given),mutagenic call,[1],active; positive
same,mutagenic call,"Test System: AMES SALMONELLA TYPHIMURIUM, Strain/Indicator: TA98, Metabolic Activation: RAT LIVER S-9, AROCLOR 1254, Method: STANDARD PLATE",inactive; negative
same,mutagenic call,[4],active; positive
same,mutagenic call,"Test System: AMES SALMONELLA TYPHIMURIUM, Strain/Indicator: TA100, Metabolic Activation: RAT LIVER S-9, AROCLOR 1254, Method: STANDARD PLATE",inactive; negative
Nc1ccc2nc3ccccc3c(N)c2c1,mutagenic call,[5],inactive; negative
same,mutagenic call,[6],inactive; negative
same,mutagenic call,[7],active; positive
same,mutagenic call,[8],active; positive
same,mutagenic call,[9],inactive; negative
same,mutagenic call,[10],active; positive
same,mutagenic call,[11],active; positive
same,mutagenic call,"Test System: AMES SALMONELLA TYPHIMURIUM, Strain/Indicator: TA1977, Metabolic Activation: RAT, LIVER, S-9, TETRACHLOROBIPHENYL, Method: PREINCUBATION",active; positive
same,mutagenic call,"Test System: AMES SALMONELLA TYPHIMURIUM, Strain/Indicator: TA1978, Metabolic Activation: RAT, LIVER, S-9, TETRACHLOROBIPHENYL, Method: PREINCUBATION",inactive; negative
O=C/C(CCl)=C(/Cl)C(=O)O,mutagenic call,[12],active; positive
same,mutagenic call,[13],active; positive
same,mutagenic call,"Test System: AMES SALMONELLA TYPHIMURIUM, Strain/Indicator: TA104, Metabolic Activation: NONE, Method: PREINCUBATION",active; positive
C[n+]1c2ccccc2cc2c(N)cccc21,mutagenic call,[5],inactive; negative
same,mutagenic call,[6],inactive; negative
same,mutagenic call,[7],active; positive
same,mutagenic call,[8],active; positive
same,mutagenic call,[9],inactive; negative
same,mutagenic call,[10],inactive; negative
same,mutagenic call,[11],active; positive
Cc1ccc2c(c1)C(=O)c1ccccc1C2=O,mutagenic call,"Test System: AMES SALMONELLA TYPHIMURIUM, Strain/Indicator: TA97, Metabolic Activation: NONE, Method: STANDARD PLATE",inactive; negative
same,mutagenic call,"Test System: AMES SALMONELLA TYPHIMURIUM, Strain/Indicator: TA97, Metabolic Activation: RAT, LIVER, S-9, PCB, Method: STANDARD PLATE",inactive; negative
same,mutagenic call,[12],inactive; negative
same,mutagenic call,[1],inactive; negative
same,mutagenic call,"Test System: AMES SALMONELLA TYPHIMURIUM, Strain/Indicator: TA98, Metabolic Activation: RAT, LIVER, S-9, PCB, Method: PREINCUBATION",inactive; negative
same,mutagenic call,"Test System: AMES SALMONELLA TYPHIMURIUM, Strain/Indicator: TA98, Metabolic Activation: RAT, LIVER, S-9, PCB, Method: STANDARD PLATE",inactive; negative
same,mutagenic call,[13],inactive; negative
same,mutagenic call,[4],inactive; negative
same,mutagenic call,"Test System: AMES SALMONELLA TYPHIMURIUM, Strain/Indicator: TA100, Metabolic Activation: RAT, LIVER, S-9, PCB, Method: PREINCUBATION",inactive; negative
same,mutagenic call,"Test System: AMES SALMONELLA TYPHIMURIUM, Strain/Indicator: TA100, Metabolic Activation: RAT, LIVER, S-9, PCB, Method: STANDARD PLATE",inactive; negative
c1ccc2c(c1)cc1sc3cccc4ccc2c1c43,mutagenic call,[1],inactive; negative
same,mutagenic call,"Test System: AMES SALMONELLA TYPHIMURIUM, Strain/Indicator: TA98, Metabolic Activation: RAT, LIVER, S-9, AROCLOR 1254 (10%), Method: STANDARD PLATE",active; positive
same,mutagenic call,[4],inactive; negative
same,mutagenic call,"Test System: AMES SALMONELLA TYPHIMURIUM, Strain/Indicator: TA100, Metabolic Activation: RAT, LIVER, S-9, AROCLOR 1254 (10%), Method: STANDARD PLATE",inactive; negative
OCCBr,mutagenic call,"Test System: AMES SALMONELLA TYPHIMURIUM, Strain/Indicator: TA97, Metabolic Activation: HAMSTER, LIVER, S-9, AROCLOR 1254 (10%), Method: PREINCUBATION",inactive; negative
same,mutagenic call,"Test System: AMES SALMONELLA TYPHIMURIUM, Strain/Indicator: TA97, Metabolic Activation: NONE, Method: PREINCUBATION",inactive; negative
same,mutagenic call,"Test System: AMES SALMONELLA TYPHIMURIUM, Strain/Indicator: TA97, Metabolic Activation: RAT, LIVER, S-9, AROCLOR 1254 (10%), Method: PREINCUBATION",inactive; negative
same,mutagenic call,"Test System: AMES SALMONELLA TYPHIMURIUM, Strain/Indicator: TA98, Metabolic Activation: HAMSTER, LIVER, S-9, AROCLOR 1254 (10%), Method: PREINCUBATION",inactive; negative
same,mutagenic call,[12],inactive; negative
same,mutagenic call,[1],inactive; negative
same,mutagenic call,"Test System: AMES SALMONELLA TYPHIMURIUM, Strain/Indicator: TA98, Metabolic Activation: RAT, LIVER, S-9, AROCLOR 1254 (10%), Method: PREINCUBATION",inactive; negative
same,mutagenic call,[2],inactive; negative
same,mutagenic call,"Test System: AMES SALMONELLA TYPHIMURIUM, Strain/Indicator: TA100, Metabolic Activation: HAMSTER, LIVER, S-9, AROCLOR 1254 (10%), Method: PREINCUBATION",active; positive
same,mutagenic call,[13],active; positive
same,mutagenic call,[4],active; positive
same,mutagenic call,"Test System: AMES SALMONELLA TYPHIMURIUM, Strain/Indicator: TA100, Metabolic Activation: RAT, LIVER, S-9, AROCLOR 1254 (10%), Method: PREINCUBATION",active; positive
same,mutagenic call,[3],active; positive
same,mutagenic call,"Test System: AMES SALMONELLA TYPHIMURIUM, Strain/Indicator: TA1535, Metabolic Activation: HAMSTER, LIVER, S-9, AROCLOR 1254 (10%), Method: PREINCUBATION",active; positive
same,mutagenic call,[5],active; positive
same,mutagenic call,"Test System: AMES SALMONELLA TYPHIMURIUM, Strain/Indicator: TA1535, Metabolic Activation: RAT, LIVER, S-9, AROCLOR 1254 (10%), Method: PREINCUBATION",active; positive
Cc1cc2ccccc2c2ccc3c(c12)[C@H]1O[C@H]1[C@@H](O)[C@@H]3O,mutagenic call,[13],active; positive
